Source: patent publication US9309242B2, “Substituted pyrido[2,3-b]pyrazines as FGFR kinase inhibitors” (priority 2011, dated 2016)
Where a name gives a salt, the structure may show the parent alone. Read-outs that look alike come from different tables or passages of the source.

Assays:
FGFR1 (h) = FGFR1 (h) (Homo sapiens, UniProt P11362); test: FGFR1 (enzymatic assay), TR-FRET; assay type: biochemical; conditions: read-out: FGFR 1 pIC50 (converted)
FGFR2 (h) = FGFR2 (h) (Homo sapiens, UniProt P21802); test: FGFR2 (enzymatic assay), TR-FRET; assay type: biochemical; conditions: enzymatic assay, read-out: FGFR 2 pIC50 (converted)
In short: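 Kinase reaction in 50 mM HEPES pH 7.5 with 6 mM MnCl2, 1 mM DTT, 0.1 mM Na3VO4 and 0.01% Triton-X-100 contained FGFR2 (h) at 150 ng/ml. Biotinylated Flt3 peptide (500 nM) served as substrate with 0.4 μM ATP, compound added in 1% DMSO final.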

FGFR3 (h) = FGFR3 (h) (Homo sapiens, UniProt P22607); test: FGFR3 (enzymatic assay), TR-FRET; assay type: biochemical; conditions: read-out: FGFR 3 pIC50 (converted)
Sequence of FGFR3 (h) (P22607 23-806): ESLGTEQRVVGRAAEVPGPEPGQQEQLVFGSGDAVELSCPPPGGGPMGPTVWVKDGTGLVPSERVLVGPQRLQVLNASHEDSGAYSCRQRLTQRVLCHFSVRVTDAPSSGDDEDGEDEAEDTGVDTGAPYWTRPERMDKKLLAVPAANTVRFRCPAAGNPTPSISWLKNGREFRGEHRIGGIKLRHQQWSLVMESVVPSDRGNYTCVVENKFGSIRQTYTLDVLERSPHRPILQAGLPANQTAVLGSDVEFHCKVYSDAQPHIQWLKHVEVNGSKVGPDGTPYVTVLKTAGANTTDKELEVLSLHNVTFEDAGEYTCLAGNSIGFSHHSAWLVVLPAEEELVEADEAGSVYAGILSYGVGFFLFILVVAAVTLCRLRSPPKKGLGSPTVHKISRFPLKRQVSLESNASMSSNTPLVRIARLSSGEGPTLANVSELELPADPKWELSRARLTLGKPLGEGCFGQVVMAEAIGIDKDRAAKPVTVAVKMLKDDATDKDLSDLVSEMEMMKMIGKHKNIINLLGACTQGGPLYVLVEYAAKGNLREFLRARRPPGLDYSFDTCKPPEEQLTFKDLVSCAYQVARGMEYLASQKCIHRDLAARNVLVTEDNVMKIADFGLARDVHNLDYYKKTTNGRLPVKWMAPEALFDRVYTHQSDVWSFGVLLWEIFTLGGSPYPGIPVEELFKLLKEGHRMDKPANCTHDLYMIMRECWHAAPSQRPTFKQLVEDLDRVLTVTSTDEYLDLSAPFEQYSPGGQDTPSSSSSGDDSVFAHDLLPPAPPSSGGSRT
Excerpt: Time-Resolved Fluorescence Resonance Energy Transfer (TR-FRET) signal (ex340 nm.

FGFR4 (h) = FGFR4 (h) (Homo sapiens, UniProt P22455); test: FGFR4 (enzymatic assay), TR-FRET; assay type: biochemical; conditions: FGFR 4 pIC50, enzymatic assay
KDR (h) = KDR (h) (Homo sapiens, UniProt P35968); test: KDR (VEGFR2) (enzymatic assay), TR-FRET; assay type: biochemical; conditions: read-out: VEGFR 2 (KDR) pIC50 (converted)
Sequence of KDR (h) (P35968 20-1356): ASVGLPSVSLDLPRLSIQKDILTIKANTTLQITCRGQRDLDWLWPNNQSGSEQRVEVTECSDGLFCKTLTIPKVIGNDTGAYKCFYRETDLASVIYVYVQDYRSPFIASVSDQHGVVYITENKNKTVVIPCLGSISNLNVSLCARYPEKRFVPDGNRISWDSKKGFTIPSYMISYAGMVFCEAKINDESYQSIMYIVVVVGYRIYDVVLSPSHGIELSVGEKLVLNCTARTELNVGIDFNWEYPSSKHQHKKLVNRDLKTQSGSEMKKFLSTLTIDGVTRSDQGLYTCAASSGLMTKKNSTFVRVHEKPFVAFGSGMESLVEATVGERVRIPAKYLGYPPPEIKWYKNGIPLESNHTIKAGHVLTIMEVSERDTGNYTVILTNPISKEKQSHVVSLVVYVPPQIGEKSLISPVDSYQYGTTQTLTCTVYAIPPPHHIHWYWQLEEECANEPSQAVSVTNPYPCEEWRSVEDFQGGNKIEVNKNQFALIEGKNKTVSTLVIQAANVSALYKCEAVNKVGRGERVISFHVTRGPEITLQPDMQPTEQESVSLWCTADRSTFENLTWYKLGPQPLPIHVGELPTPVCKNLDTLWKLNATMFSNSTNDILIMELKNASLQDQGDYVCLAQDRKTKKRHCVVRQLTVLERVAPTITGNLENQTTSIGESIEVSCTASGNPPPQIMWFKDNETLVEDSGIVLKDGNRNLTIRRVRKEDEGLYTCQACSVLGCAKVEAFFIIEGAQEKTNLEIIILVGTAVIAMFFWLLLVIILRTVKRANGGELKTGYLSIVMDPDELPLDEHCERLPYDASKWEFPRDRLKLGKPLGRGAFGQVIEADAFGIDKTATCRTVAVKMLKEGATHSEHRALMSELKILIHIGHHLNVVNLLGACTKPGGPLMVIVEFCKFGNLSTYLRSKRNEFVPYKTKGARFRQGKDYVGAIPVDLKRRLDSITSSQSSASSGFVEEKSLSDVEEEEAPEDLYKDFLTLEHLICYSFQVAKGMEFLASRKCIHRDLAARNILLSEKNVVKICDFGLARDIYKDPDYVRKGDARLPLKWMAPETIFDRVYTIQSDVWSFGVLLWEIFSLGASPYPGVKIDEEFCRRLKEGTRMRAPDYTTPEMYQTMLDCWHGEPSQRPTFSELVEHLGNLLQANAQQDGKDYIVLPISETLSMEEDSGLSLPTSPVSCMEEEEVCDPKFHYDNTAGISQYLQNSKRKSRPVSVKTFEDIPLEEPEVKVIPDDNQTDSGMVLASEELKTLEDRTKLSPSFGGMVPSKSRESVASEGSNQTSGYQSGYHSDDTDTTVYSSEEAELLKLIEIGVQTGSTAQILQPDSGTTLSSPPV
In short: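 Enzyme at 150 ng/ml was incubated 120 min at room temperature with 500 nM Btn-Flt3 peptide and 3 μM ATP in 50 mM HEPES pH 7.5, 6 mM MnCl2, 1 mM DTT, 0.1 mM Na3VO4, 0.01% Triton-X-100, 1% DMSO final. EDTA stop with Eu-anti-P-Tyr/SA-XL-665, 60 min; TR-FRET read in RFU.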

[1] = target: T1, Ba/F3-FGFR1-transfected cells (Homo sapiens, UniProt P11362); test: Ba/F3-FGFR1 (minus IL3) cellular proliferation assay, Alamar Blue; assay type: cell-based
T1 construct: BAF3-FGFR1 (MIN IL3) pIC50; other: minus IL3
In short: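 Viability was measured by resazurin reduction (fluorescence, 540 nm excitation/590 nm emission) after a 4 h Alamar Blue incubation. This followed 24 h of compound treatment at 37 °C, 5% CO2, of 20000 FGFR1-transfected Ba/F3 cells per well in 10% FBS RPMI-1640.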

[2] = tested on: Ba/F3-FGFR1-transfected cells; test: Ba/F3-FGFR1 (plus IL3) cellular proliferation assay, counterscreen with 10 ng/ml murine IL3; assay type: cell-based; conditions: for IC50: read-out: BAF3-FGFR1 (PLUS IL3) pIC50 (converted); for BAF3-FGFR1 (PLUS IL3) pIC50: plus IL3 (10 ng/ml murine IL3, counterscreen)
In short: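 Ba/F3-FGFR1 cells (20000/well) in RPMI-1640 with 10% FBS exposed to compound for 24 h at 37° C., 5% CO2, then Alamar Blue (resazurin) added for 4 h; fluorescence read at ex 540/em 590 nm. Counterscreen run identically with 10 ng/ml murine IL3.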

[3] = target: T2, Ba/F3-FGFR3-transfected cells (Homo sapiens, UniProt P22607); test: Ba/F3-FGFR3 (minus IL3) cellular proliferation assay, Alamar Blue; assay type: cell-based
T2 construct: BAF3-FGFR3 (MIN IL3) pIC50; other: minus IL3
T2 sequence (P22607 whole entry, change not shown): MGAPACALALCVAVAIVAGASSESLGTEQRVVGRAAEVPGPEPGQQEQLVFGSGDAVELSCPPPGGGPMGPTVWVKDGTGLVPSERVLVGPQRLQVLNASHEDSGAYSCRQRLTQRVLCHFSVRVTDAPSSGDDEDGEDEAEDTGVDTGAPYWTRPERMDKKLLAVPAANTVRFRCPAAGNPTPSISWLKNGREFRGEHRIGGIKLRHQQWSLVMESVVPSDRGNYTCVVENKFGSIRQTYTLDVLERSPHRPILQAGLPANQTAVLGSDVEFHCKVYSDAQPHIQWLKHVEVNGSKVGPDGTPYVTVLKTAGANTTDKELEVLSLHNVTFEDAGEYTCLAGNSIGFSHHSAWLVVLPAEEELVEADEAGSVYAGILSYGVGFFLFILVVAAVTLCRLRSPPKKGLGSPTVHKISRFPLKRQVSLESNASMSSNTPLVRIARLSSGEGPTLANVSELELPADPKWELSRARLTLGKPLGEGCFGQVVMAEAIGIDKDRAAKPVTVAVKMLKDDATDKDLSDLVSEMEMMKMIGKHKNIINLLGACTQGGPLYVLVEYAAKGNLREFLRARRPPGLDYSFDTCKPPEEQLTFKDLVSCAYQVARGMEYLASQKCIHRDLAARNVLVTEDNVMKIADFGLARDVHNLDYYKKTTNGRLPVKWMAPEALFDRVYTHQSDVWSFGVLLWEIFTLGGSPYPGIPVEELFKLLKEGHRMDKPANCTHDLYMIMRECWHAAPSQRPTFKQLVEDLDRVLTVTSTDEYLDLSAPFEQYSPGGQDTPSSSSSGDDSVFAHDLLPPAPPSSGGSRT
In short: (§1)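 Viability readout was resazurin reduction (ex 540/em 590 nm) after 4 h, following 24 h compound treatment at 37 °C of FGFR3-transfected Ba/F3 cells (20000/well, RPMI-1640/10% FBS). IL3-dependent counterscreen used identical conditions plus 10 ng/ml murine IL3.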

[4] = tested on: Ba/F3-FGFR3-transfected cells; test: Ba/F3-FGFR3 (plus IL3) cellular proliferation assay, counterscreen with 10 ng/ml murine IL3; assay type: cell-based; conditions: for IC50: read-out: BAF3-FGFR3 (PLUS IL3) pIC50 (converted); for BAF3-FGFR3 (PLUS IL3) pIC50: plus IL3 (10 ng/ml murine IL3, counterscreen)
In short: as §1

[5] = target: T3, Ba/F3-KDR-transfected cells (Homo sapiens, UniProt P35968); test: Ba/F3-KDR (minus IL3) cellular proliferation assay, Alamar Blue; assay type: cell-based
T3 construct: BAF3-KDR (MIN IL3) pIC50; other: minus IL3
In short: (§2)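 Ba/F3-KDR cells (20000 per well) in phenol red-free RPMI-1640 with 10% FBS were exposed to compound for 24 hours at 37° C, 5% CO2. Alamar Blue (resazurin) was then added for 4 hours, and fluorescence was read at ex. 540 nm/em. 590 nm.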

[6] = tested on: Ba/F3-KDR-transfected cells; test: Ba/F3-KDR (plus IL3) cellular proliferation assay, counterscreen with 10 ng/ml murine IL3; assay type: cell-based; conditions: for IC50: read-out: BAF3-KDR (PLUS IL3) pIC50 (converted); for BAF3-KDR (PLUS IL3) pIC50: plus IL3 (10 ng/ml murine IL3, counterscreen)
In short: as §2

[7] = target: Ba/F3-FGFR4-transfected cells (Homo sapiens, UniProt P22455); test: Ba/F3-FGFR4 cellular proliferation assay, Alamar Blue; assay type: cell-based
Sequence of Ba/F3-FGFR4-transfected cells (P22455 whole entry, change not shown): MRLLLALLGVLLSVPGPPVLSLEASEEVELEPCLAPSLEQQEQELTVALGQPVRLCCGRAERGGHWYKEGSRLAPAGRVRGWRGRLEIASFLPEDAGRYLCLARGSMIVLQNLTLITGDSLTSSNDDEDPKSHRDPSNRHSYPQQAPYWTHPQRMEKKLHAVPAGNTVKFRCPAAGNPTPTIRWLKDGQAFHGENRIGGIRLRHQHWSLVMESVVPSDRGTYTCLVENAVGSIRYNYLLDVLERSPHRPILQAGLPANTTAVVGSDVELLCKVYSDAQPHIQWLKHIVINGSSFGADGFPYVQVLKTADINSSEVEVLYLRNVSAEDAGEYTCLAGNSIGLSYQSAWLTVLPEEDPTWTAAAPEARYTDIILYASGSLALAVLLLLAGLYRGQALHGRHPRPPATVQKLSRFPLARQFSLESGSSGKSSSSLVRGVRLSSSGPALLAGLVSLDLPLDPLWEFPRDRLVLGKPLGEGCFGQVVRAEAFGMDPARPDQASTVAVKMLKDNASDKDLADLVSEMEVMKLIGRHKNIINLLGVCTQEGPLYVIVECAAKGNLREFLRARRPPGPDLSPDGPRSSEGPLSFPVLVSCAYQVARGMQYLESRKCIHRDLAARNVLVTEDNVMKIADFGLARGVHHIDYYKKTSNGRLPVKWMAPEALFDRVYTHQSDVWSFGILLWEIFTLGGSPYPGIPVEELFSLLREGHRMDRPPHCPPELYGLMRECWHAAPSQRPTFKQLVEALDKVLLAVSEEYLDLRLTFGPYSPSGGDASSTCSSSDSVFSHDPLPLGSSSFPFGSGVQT
In short: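 Compounds in DMSO were dispensed before 20000 Ba/F3-FGFR4-transfected cells per well were added in phenol red free RPMI-1640 with 10% FBS, 2 mM L-Glutamine. After 24 hours at 37° C and 5% CO2, Alamar Blue was added for 4 hours and fluorescence read (ex. 540 nm, em. 590 nm).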

[8] = average values if tested multiple times

Sequence of FGFR1 (h) (P11362 22-822): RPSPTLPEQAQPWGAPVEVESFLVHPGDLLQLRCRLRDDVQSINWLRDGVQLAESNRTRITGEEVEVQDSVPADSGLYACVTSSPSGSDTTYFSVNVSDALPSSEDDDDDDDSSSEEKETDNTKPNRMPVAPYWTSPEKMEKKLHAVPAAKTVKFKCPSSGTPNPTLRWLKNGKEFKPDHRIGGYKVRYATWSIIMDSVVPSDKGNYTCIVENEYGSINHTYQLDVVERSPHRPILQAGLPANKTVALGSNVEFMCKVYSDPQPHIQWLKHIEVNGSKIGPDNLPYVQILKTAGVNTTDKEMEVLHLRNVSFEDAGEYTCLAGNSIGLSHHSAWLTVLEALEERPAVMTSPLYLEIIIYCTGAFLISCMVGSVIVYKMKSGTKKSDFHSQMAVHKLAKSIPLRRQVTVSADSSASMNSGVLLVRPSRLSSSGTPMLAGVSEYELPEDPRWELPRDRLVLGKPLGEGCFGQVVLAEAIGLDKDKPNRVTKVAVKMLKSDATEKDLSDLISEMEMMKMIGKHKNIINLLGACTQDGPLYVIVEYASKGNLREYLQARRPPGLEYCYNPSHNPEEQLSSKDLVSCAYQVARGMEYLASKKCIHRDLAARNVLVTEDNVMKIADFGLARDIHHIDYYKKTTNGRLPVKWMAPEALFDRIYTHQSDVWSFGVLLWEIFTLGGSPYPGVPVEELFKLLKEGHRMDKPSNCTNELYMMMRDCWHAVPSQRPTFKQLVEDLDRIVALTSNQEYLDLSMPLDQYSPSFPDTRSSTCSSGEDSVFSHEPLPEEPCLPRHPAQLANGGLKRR

Row | Compound | melting point [°C] | IC50 (FGFR1 (h)) [nM] | IC50 (FGFR2 (h)) [nM] | IC50 (FGFR3 (h)) [nM] | IC50 (FGFR4 (h)) [nM] | IC50 (KDR (h)) [nM] | BAF3-FGFR1 (MIN IL3) pIC50 [1] | IC50 [2] [nM] | BAF3-FGFR3 (MIN IL3) pIC50 [3] | IC50 [4] [nM] | BAF3-KDR (MIN IL3) pIC50 [5] | IC50 [6] [nM] | BAF3-FGFR4 pIC50 [7] | also measured
1 | COc1cc(OC)cc(N(Cc2ncc[nH]2)c2ccc3ncc(-c4cnn(C)c4)nc3n2)c1 (as salt: sulphate) [Compound 24] | 266 |  |  |  |  |  |  |  |  |  |  |  |  | 
2 | COc1cc(OC)c(F)c(N(Cc2ncc[nH]2)c2ccc3ncc(-c4cnn(C)c4)nc3n2)c1 (as salt: sulfate) [Compound 23] | 198 |  |  |  |  |  |  |  |  |  |  |  |  | 
3 | COc1cc(OC)cc(N(Cc2ncc[nH]2)c2ccc3ncc(-c4cnn(C)c4)nc3n2)c1 (as salt: tartrate) [Compound 24] | 176 |  |  |  |  |  |  |  |  |  |  |  |  | 
4 | COc1cc(OC)c(F)c(N(Cc2ncn(C3CNC3)n2)c2ccc3ncc(-c4cnn(C)c4)nc3n2)c1 | 126 |  |  |  |  |  |  |  |  |  |  |  |  | 
5 | COc1cc(/N=c2\ccc3ncc(-c4cnn(C)c4)nc3n2CCNC(C)=O)c(F)c(OC)c1 [Compound 243] |  | 0.977 | 1.62 | 1.32 | 1.95 | 15.1 | 7.85 | > 10000 | ~8.13 | > 10000 | 6.00 | > 10000 | 7.14 | 
6 | COc1cc(OC)c(F)c(N(CCS(C)(=O)=O)c2ccc3ncc(-c4cnn(C)c4)nc3n2)c1 [Compound 226] |  | 0.912 | 2.19 | 1.12 | 3.02 | 26.3 | 7.32 | > 10000 | ~7.54 | > 10000 | 5.92 | > 10000 | 6.60 | 
7 | CNCCn1/c(=N/c2c(F)c(OC)cc(OC)c2F)ccc2ncc(-c3cn[nH]c3)nc21 [Compound 121] |  | 1.62 | 2.57 | 1 | 2.95 | 26.9 | 7.38 | > 10000 | 6.88 | > 10000 | 5.25 | > 10000 | 6.08 | 
8 | COCC(O)CN(c1ccc2ncc(-c3cnn(C)c3)nc2n1)c1cc(OC)cc(OC)c1F (single isomer, unassigned) [Compound 59] |  |  |  |  |  |  | 7.60 |  | 7.71 |  | 5.73 |  | 7.19 | IC50 (FGFR1 (h); [8]): ~1.78 nM; IC50 (FGFR2 (h); [8]): 1.82 nM; IC50 (FGFR3 (h); [8]): 1.23 nM; IC50 (FGFR4 (h); [8]): 2.19 nM; IC50 (KDR (h); [8]): 25.1 nM; BAF3-FGFR1 (PLUS IL3) pIC50 [2]: <5; BAF3-FGFR3 (PLUS IL3) pIC50 [4]: <5; BAF3-KDR (PLUS IL3) pIC50 [6]: <5
9 | COc1cc(/N=c2\ccc3ncc(-c4cnn(C)c4)nc3n2Cc2cc[nH]n2)c(F)c(OC)c1 (as salt: HCl) (hydrate or solvate) [Compound 115] | 130 |  |  |  |  |  |  |  |  |  |  |  |  | 
10 | COc1cc(OC)c(F)c(N(Cc2ncc[nH]2)c2ccc3ncc(-c4cnn(C)c4)nc3n2)c1 [23-hydrochloric acid salt] |  |  |  |  |  |  | 8.81 |  | ~8.58 |  | 6.68 |  | 7.98 | IC50 (FGFR1 (h); [8]): 0.437 nM; IC50 (FGFR2 (h); [8]): 1.41 nM; IC50 (FGFR3 (h); [8]): 0.776 nM; IC50 (FGFR4 (h); [8]): 0.851 nM; IC50 (KDR (h); [8]): 6.76 nM; BAF3-FGFR1 (PLUS IL3) pIC50 [2]: <5; BAF3-FGFR3 (PLUS IL3) pIC50 [4]: <5; BAF3-KDR (PLUS IL3) pIC50 [6]: <5
11 | COc1cc(OC)c(F)c(N(CC2CCOC2)c2ccc3ncc(-c4cnn(C)c4)nc3n2)c1 (single isomer, unassigned) [Compound 172] |  | 3.72 | 4.47 | 3.02 | ~15.8 | 45.7 | 6.54 |  | ~7.06 |  | 5.35 |  | 6.33 | BAF3-FGFR1 (PLUS IL3) pIC50 [2]: <5; BAF3-FGFR3 (PLUS IL3) pIC50 [4]: <5; BAF3-KDR (PLUS IL3) pIC50 [6]: <5
12 | COc1cc(/N=c2\ccc3ncc(-c4cnn(C)c4)nc3n2CCCN2CCCC2=O)cc(OC)c1 [Compound 133] |  | 1 | 1.23 | 0.724 | 1.58 | 5.89 | 7.30 | > 10000 | ~7.58 | > 10000 | 6.39 | > 10000 | 6.73 | 
